Source: BindingDB's records for doi:10.1016/s0960-894x(03)00254-3 (Merck Research Laboratories, 2003)

Test: Ability to bind to the […] integrin expressed as inhibitory concentration against ADP-stimulated aggregation of human gel-filtered platelets

Row | Structure (SMILES) | IC50 [nM]
1 | O=C(O)C[C@H](NC(=O)Cn1c(-c2ccccc2)c(Cl)nc(NCc2ccc3c(n2)NCCC3)c1=O)c1cccc(F)c1 [(S)-3-(2-{5-Chloro-2-oxo-6-phenyl-3-[(5,6,7,8-tetrahydro-[1,8]naphthyridin-2-ylmethyl)-amino]-2H-pyrazin-1-yl}-acetylamino)-3-(3-fluoro-phenyl)-propionic acid] | > 3000
2 | Cc1c(Cl)nc(NCc2ccc3c(n2)NCCC3)c(=O)n1CC(=O)N[C@@H](CC(=O)O)c1cccc(F)c1 [(S)-3-(2-{5-Chloro-6-methyl-2-oxo-3-[(5,6,7,8-tetrahydro-[1,8]naphthyridin-2-ylmethyl)-amino]-2H-pyrazin-1-yl}-acetylamino)-3-(3-fluoro-phenyl)-propionic acid] | > 3000
3 | O=C(O)C[C@H](NC(=O)Cn1c(C2CC2)c(Cl)nc(NCc2ccc3c(n2)NCCC3)c1=O)c1ccc2c(c1)OCC2 [(S)-3-(2-{5-Chloro-6-cyclopropyl-2-oxo-3-[(5,6,7,8-tetrahydro-[1,8]naphthyridin-2-ylmethyl)-amino]-2H-pyrazin-1-yl}-acetylamino)-3-(2,3-dihydro-benzofuran-6-yl)-propionic acid] | > 3000
4 | Cc1cnc(NCc2ccc3c(n2)NCCC3)c(=O)n1CC(=O)N[C@@H](CC(=O)O)c1cccc(F)c1 [(S)-3-(3-Fluoro-phenyl)-3-(2-{6-methyl-2-oxo-3-[(5,6,7,8-tetrahydro-[1,8]naphthyridin-2-ylmethyl)-amino]-2H-pyrazin-1-yl}-acetylamino)-propionic acid] | > 3000
5 | O=C(O)C[C@H](NC(=O)Cn1c(C2CC2)cnc(NCc2ccc3c(n2)NCCC3)c1=O)c1cccnc1 [(S)-3-(2-{6-Cyclopropyl-2-oxo-3-[(5,6,7,8-tetrahydro-[1,8]naphthyridin-2-ylmethyl)-amino]-2H-pyrazin-1-yl}-acetylamino)-3-pyridin-3-yl-propionic acid] | > 3000
6 | O=C(O)C[C@H](NC(=O)Cn1c(C2CC2)cnc(NCc2ccc3c(n2)NCCC3)c1=O)c1cccc(F)c1 [(S)-3-(2-{6-Cyclopropyl-2-oxo-3-[(5,6,7,8-tetrahydro-[1,8]naphthyridin-2-ylmethyl)-amino]-2H-pyrazin-1-yl}-acetylamino)-3-(3-fluoro-phenyl)-propionic acid] | > 3000
7 | CCc1c(Cl)nc(NCc2ccc3c(n2)NCCC3)c(=O)n1CC(=O)N[C@@H](CC(=O)O)c1cccc(F)c1 [(S)-3-(2-{5-Chloro-6-ethyl-2-oxo-3-[(5,6,7,8-tetrahydro-[1,8]naphthyridin-2-ylmethyl)-amino]-2H-pyrazin-1-yl}-acetylamino)-3-(3-fluoro-phenyl)-propionic acid] | > 3000
8 | O=C(O)C[C@H](NC(=O)CNC(=O)CCCc1ccc2c(n1)NCCC2)c1cccnc1 [(S)-3-Pyridin-3-yl-3-[2-(4-5,6,7,8-tetrahydro-[1,8]naphthyridin-2-yl-butyrylamino)-acetylamino]-propionic acid] | > 3000
9 | O=C(O)C[C@H](NC(=O)Cn1c(C2CC2)c(Cl)nc(NCc2ccc3c(n2)NCCC3)c1=O)c1cccc(F)c1 [(S)-3-(2-{5-Chloro-6-cyclopropyl-2-oxo-3-[(5,6,7,8-tetrahydro-[1,8]naphthyridin-2-ylmethyl)-amino]-2H-pyrazin-1-yl}-acetylamino)-3-(3-fluoro-phenyl)-propionic acid] | > 3000
10 | O=C(O)C[C@H](NC(=O)Cn1c(C2CC2)c(Cl)nc(NCc2ccc3c(n2)NCCC3)c1=O)c1cccnc1 [(S)-3-(2-{5-Chloro-6-cyclopropyl-2-oxo-3-[(5,6,7,8-tetrahydro-[1,8]naphthyridin-2-ylmethyl)-amino]-2H-pyrazin-1-yl}-acetylamino)-3-pyridin-3-yl-propionic acid] | > 3000
11 | O=C(O)C[C@H](NC(=O)CN1CC[C@H](CCc2ccc3c(n2)NCCC3)C1=O)c1cccnc1 [3-(2-{(S)-2-Oxo-3-[2-(5,6,7,8-tetrahydro-[1,8]naphthyridin-2-yl)-ethyl]-pyrrolidin-1-yl}-acetylamino)-3-(S)-pyridin-3-yl-propionic acid] | > 3000
12 | CCc1cnc(NCc2ccc3c(n2)NCCC3)c(=O)n1CC(=O)N[C@@H](CC(=O)O)c1cccc(F)c1 [(S)-3-(2-{6-Ethyl-2-oxo-3-[(5,6,7,8-tetrahydro-[1,8]naphthyridin-2-ylmethyl)-amino]-2H-pyrazin-1-yl}-acetylamino)-3-(3-fluoro-phenyl)-propionic acid] | > 3000
13 | O=C(O)C[C@H](NC(=O)Cn1c(C2CC2)cnc(NCc2ccc3c(n2)NCCC3)c1=O)c1ccc2c(c1)OCO2 [(S)-3-Benzo[1,3]dioxol-5-yl-3-(2-{6-cyclopropyl-2-oxo-3-[(5,6,7,8-tetrahydro-[1,8]naphthyridin-2-ylmethyl)-amino]-2H-pyrazin-1-yl}-acetylamino)-propionic acid] | > 3000
14 | O=C(O)C[C@H](NC(=O)Cn1c(C2CC2)c(Cl)nc(NCc2ccc3c(n2)NCCC3)c1=O)c1cnc2ccccc2c1 [(S)-3-(2-{5-Chloro-6-cyclopropyl-2-oxo-3-[(5,6,7,8-tetrahydro-[1,8]naphthyridin-2-ylmethyl)-amino]-2H-pyrazin-1-yl}-acetylamino)-3-quinolin-3-yl-propionic acid] | > 3000
15 | O=C(O)C[C@H](NC(=O)Cc1cccc(CCc2ccc3c(n2)NCCC3)c1)c1cccnc1 [3-(S)-Pyridin-3-yl-3-(2-{3-[2-(5,6,7,8-tetrahydro-[1,8]naphthyridin-2-yl)-ethyl]-phenyl}-acetylamino)-propionic acid] | > 3000

Test: Ability to bind to the alpha IIb beta-3 integrin expressed as inhibitory concentration against ADP-stimulated aggregation of human gel-filtered platelets

Row | Structure (SMILES) | IC50 [nM]
16 | O=C(O)C[C@H](NC(=O)Cn1c(C2CC2)ccc(NCc2ccc3c(n2)NCCC3)c1=O)c1cccc(F)c1 [(S)-3-(2-{6-Cyclopropyl-2-oxo-3-[(5,6,7,8-tetrahydro-[1,8]naphthyridin-2-ylmethyl)-amino]-2H-pyridin-1-yl}-acetylamino)-3-(3-fluoro-phenyl)-propionic acid] | > 3000
17 | C#C[C@H](CC(=O)O)NC(=O)Cn1c(C2CC2)ccc(NCc2ccc3c(n2)NCCC3)c1=O [(S)-3-(2-{6-Cyclopropyl-2-oxo-3-[(5,6,7,8-tetrahydro-[1,8]naphthyridin-2-ylmethyl)-amino]-2H-pyridin-1-yl}-acetylamino)-pent-4-ynoic acid] | > 3000
18 | O=C(O)C[C@H](NC(=O)Cn1c(C2CC2)ccc(NCc2ccc3c(n2)NCCC3)c1=O)c1ccc2c(c1)OCC2 [(S)-3-(2-{6-Cyclopropyl-2-oxo-3-[(5,6,7,8-tetrahydro-[1,8]naphthyridin-2-ylmethyl)-amino]-2H-pyridin-1-yl}-acetylamino)-3-(2,3-dihydro-benzofuran-6-yl)-propionic acid] | > 3000
19 | O=C(O)C[C@H](NC(=O)Cn1cccc(NCc2ccc3c(n2)NCCC3)c1=O)c1cccnc1 [3-(2-{2-Oxo-3-[(5,6,7,8-tetrahydro-[1,8]naphthyridin-2-ylmethyl)-amino]-2H-pyridin-1-yl}-acetylamino)-3-(S)-pyridin-3-yl-propionic acid] | > 3000
20 | CCCc1ccc(NCc2ccc3c(n2)NCCC3)c(=O)n1CC(=O)N[C@@H](CC(=O)O)c1cccnc1 [3-(2-{2-Oxo-6-propyl-3-[(5,6,7,8-tetrahydro-[1,8]naphthyridin-2-ylmethyl)-amino]-2H-pyridin-1-yl}-acetylamino)-3-(S)-pyridin-3-yl-propionic acid] | > 3000
21 | O=C(O)C[C@H](NC(=O)CN1CCCC(CCc2ccc3c(n2)NCCC3)C1=O)c1cccnc1 (stereo partly drawn) [3-(2-{2-Oxo-3-[2-(5,6,7,8-tetrahydro-[1,8]naphthyridin-2-yl)-ethyl]-piperidin-1-yl}-acetylamino)-3-(S)-pyridin-3-yl-propionic acid] | > 3000
22 | Cc1cnc(NCc2ccc3c(n2)NCCC3)c(=O)n1CC(=O)N[C@@H](CC(=O)O)c1cccnc1 [3-(2-{6-Methyl-2-oxo-3-[(5,6,7,8-tetrahydro-[1,8]naphthyridin-2-ylmethyl)-amino]-2H-pyrazin-1-yl}-acetylamino)-3-(S)-pyridin-3-yl-propionic acid] | > 3000
23 | O=C(O)C[C@H](NC(=O)Cn1c(C2CC2)ccc(NCc2ccc3c(n2)NCCC3)c1=O)c1cccnc1 [3-(2-{6-Cyclopropyl-2-oxo-3-[(5,6,7,8-tetrahydro-[1,8]naphthyridin-2-ylmethyl)-amino]-2H-pyridin-1-yl}-acetylamino)-3-(S)-pyridin-3-yl-propionic acid] | > 3000
24 | Cc1ccc(NCc2ccc3c(n2)NCCC3)c(=O)n1CC(=O)N[C@@H](CC(=O)O)c1cccnc1 [3-(2-{6-Methyl-2-oxo-3-[(5,6,7,8-tetrahydro-[1,8]naphthyridin-2-ylmethyl)-amino]-2H-pyridin-1-yl}-acetylamino)-3-(S)-pyridin-3-yl-propionic acid] | > 3000
